Structures can show the parent of a compound that is named as a salt.
What was measured:
[1] = test system: venous ulcer; experiment: Open wound healing in a patient with incurable venous ulcer; type: in vivo, human; details: 1% BAC-3 ointment, twice daily during 41 days
Method: The BAC-3 rhamnolipid was tested in the case of open wound healing, in a patient suffering around ten years from incurable venous ulcer. On the left leg, the patient had very thick layers of collagen with fibrotic lesions. […] Moreover, after treatment was finished, not only the collagen, but also the fibrotic lesions had disappeared as well. One year after the treatment, the treated skin lesions on the left leg appear normal, and all skin collagen and fibrotic layers had disappeared.

[2] = test system: burn wounds; experiment: Topical treatment of burn wounds, 15% of body surface; type: in vivo, Sprague-Dawley rats; details: 1% BAC-3 in ointment without chlorhexidine, started on 50th day after burning on open wounds; tapering regimen
Method: Method of burning. […] (Producer: Veterinary Laboratory Inc. Lenexa, Kans.).
Four rats were burned according to the described procedure using the wider opening in the Walker device (10×5 cm). All rats were treated from the beginning by placebo. After 50 days all burned rats had open wounds in average 2.3 cm at the neck, 1.3 cm in the middle and 1.8 cm at the tail.
On the 50th day after burning, animals were treated with 1% BAC-3 in ointment without chlorhexidine hydrochloride using the following procedure:
For the first 3 days, burn wounds were treated twice daily. After developing granulation tissue and the first sign of epithelization, animals were treated 3 days with 1% BAC-3 in ointment once daily. For the next four days, animals were treated every second day. After that wounds were treated every third day with 1% BAC-3 in ointment until the entire wound was re-epithelized. Re-epithelization was first completed at the middle of the wounds, then at the tails and finally at the necks. Whole epithelization in all animals was finished in 30 days.

[3] = test system: incision wounds; experiment: Tensile strength of incision wounds; type: in vivo, Sprague-Dawley rats; details: 0.1% BAC-3, 21 days after wounding, p<0.05 by ANOVA; FIG. 3
From the text: Incision wounds. Dorsal midline incisions were made in anesthetized rats. The animals were clipped free of their fur and prepared with alcohol. A 5.0 cm, midline, full-thickness incision was made with a scalpel through the panniclus carnosus.
The wounds were immediately closed with skin sutures spaced at a distance of 0.5 cm. Seven days later, all sutures were removed. On days 14 and 21 after incision, three animals from each group were killed using an overdose of sodium pentobarbital. Using a plexiglass template, a minimum of two samples of full-thickness skin were harvested perpendicular to the long axis of the wound for tensile strength determination. The skin samples were 9.0 mm wide at the wound by 2.0 cm long.
Tensile Strength Determination. The standard wound samples for each treatment cohort were examined for tensile strength by pulling the individual wounds apart in an Instron 4201 (Universal Testing instruments, Instron Engineering Co., Canton, Mass.) material tester. Special clamps were used to securely grip the tissue to avoid slippage as the wounds were pulled at a standard cross speed of 25 mm/min. The tensile strength of healthy skin was measured in killed animals from each group.
Effect of BAC-3 on Tensile Strength of Incision Wounds (FIG. 3) with and without chlorhexidine hydrochloride. The tensile strength of incision wounds was measured 21 days after wounding. […]

[4] = test system: burn wounds; experiment: Topical treatment of burn wounds, 7% of body surface; details: for mean value of collagen tissue: sacrificed on 45th day, histopathology; for mean value of collagen concentration relative to group 1 D (placebo): placebo taken as 1100% (printed)
[5] = test system: mice; details: cited from earlier work; for PCP-induced enhancement of immobility in the forced swimming test: doses that failed to produce antidepressant effects in control animals
[6] = test system: WKY rats; details: cited from earlier work
[7] = test system: WKY rats; details: cited from earlier work; remark: listed apart in the source

CCCCCCCC(CC(=O)O)OC(=O)CC(CCCCCCC)OC1OC(C)C(O)C(O)C1OC1OC(C)C(O)C(O)C1O [BAC-3, (α-L-rhamnopyranosyl-(1,2)-α-L-rhamnopyranosyl)-3-hyroxydecanoyl-3-hydroxydecanoic acid]
collagen and fibrotic lesions after treatment was finished [1]: disappeared | treated skin lesions one year after the treatment ([1]; one year after): appear normal | patient's condition ([1]; venous ulcer, left leg): significantly improved | time to whole epithelization in all animals [2]: 30 days | tensile strength of incision wounds vs corresponding vehicle [3]: significantly lower | rate of burn wound closure (decrease in wound size) vs vehicle alone ([4]; 0.1% BAC-3 in eucerin, without chlorhexidine, twice daily, days 14-45, FIG. 1): significantly faster | extent of burn wound closure (wound size) vs vehicle alone ([4]; 0.1% BAC-3 in eucerin, without chlorhexidine, days 14, 21 and 28, p<0.05 by ANOVA, FIG. 2): significantly smaller | body weights among the treatment groups ([4]; 1% and 0.1% BAC-3 in eucerin vs vehicle, twice daily, 45 days): no significant differences | crust formation ([4]; between all groups (1% and 0.1% BAC-3, with or without chlorhexidine, placebo), 45 days): no significant differences | granulation tissue ([4]; group 1-A: 1% BAC-3 in ointment twice daily): prominently developed | hair growth of dead skin during the healing period ([4]; group 1-A: 1% BAC-3 in ointment, compared to the other groups): very prominent | re-epithelization in the middle part of the burn wounds ([4]; group 1-B: 0.1% BAC-3 in ointment twice daily): faster | mean value of collagen tissue ([4]; group 1 A: 1% BAC-3, without chlorhexidine): 8.48 mm^2 | mean value of collagen concentration relative to group 1 D (placebo) ([4]; group 1 A: 1% BAC-3): 131.26 | mean value of collagen tissue ([4]; group 1 B: 0.1% BAC-3, without chlorhexidine): 5.15 mm^2 | mean value of collagen concentration relative to group 1 D (placebo) ([4]; group 1 B: 0.1% BAC-3): 79.72 | granulation tissue ([4]; group 2-A: 1% BAC-3 in ointment plus 1% chlorhexidine hydrochloride twice daily): prominently developed | re-epithelization in the middle part of the burn wounds ([4]; group 2-B: 0.1% BAC-3 in ointment plus 1% chlorhexidine hydrochloride twice daily): faster

c1ccc(C2(N3CCCCC3)CCCCC2)cc1 [PCP, phencyclidine]
forced swimming-induced immobility ([5]; mice treated repeatedly with PCP (10 mg/kg per day S.C.), same stress again): enhanced | persistence of the enhancing effect on immobility after withdrawal of the drug ([5]; mice, PCP 10 mg/kg per day S.C.): at least 21 days

[H]/N=C(\N/C(=N/[H])NCCCCCCNC(=N)NC(=N)Nc1ccc(Cl)cc1)Nc1ccc(Cl)cc1 [chlorhexidine hydrochloride, reference compound]
wound irritation ([4]; 1% chlorhexidine hydrochloride in combination with BAC-3, rats scratched lower and upper part of burn wounds): irritated wounds

CNCCCN1c2ccccc2CCc2ccccc21 [desipramine]
immobility in the forced swim test [6]: reduces immobility | incidence of stress ulcer [7]: reduces the incidence of stress ulcer

Cc1nc2n(c(=O)c1CCN1CCC(c3noc4cc(F)ccc34)CC1)CCCC2 [risperidone]
PCP-induced enhancement of immobility in the forced swimming test ([5]; mice): attenuated

Cc1nc2sccn2c(=O)c1CCN1CCC(=C(c2ccc(F)cc2)c2ccc(F)cc2)CC1 [ritanserin]
PCP-induced enhancement of immobility in the forced swimming test ([5]; mice): attenuated

— patent US7262171B1, “Use of rhamnolipids in wound healing, treating burn shock, atherosclerosis, organ transplants, depression, schizophrenia and cosmetics” (Paradigm Biomedical, Inc., priority 1998, dated 2007)
